Laboratory results from PubChem BioAssay (NCI).
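48-hour exposure; five concentrations; linearly interpolated endpoints. GI50: concentration for 50% inhibition of growth. TGI denotes the concentration required for complete inhibition of growth.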

Assays:
Assay in all cases: growth of human tumour cells (NCI), 48 h
MDA-MB-435 = tested on: MDA-MB-435
HOP-92 NSCLC = tested on: HOP-92 NSCLC
OVCAR-5 ovarian = tested on: OVCAR-5 ovarian
SF-295 CNS = tested on: SF-295 CNS
MDA-MB-231 breast = tested on: MDA-MB-231 breast
NCI-H460 lung = tested on: NCI-H460 lung
RPMI-8226 leukemia = tested on: RPMI-8226 leukemia
TK-10 renal = tested on: TK-10 renal
HOP-62 NSCLC = tested on: HOP-62 NSCLC
UACC-62 melanoma = tested on: UACC-62 melanoma

How did the TGI (MDA-MB-435) turn out when `CC1(C)OC(=O)C(=Cc2ccc([N+](=O)[O-])s2)C(=O)O1` was run?
Its TGI is 30.4 µM.

And the TGI (HOP-92 NSCLC)?
Its TGI is 37.9 µM.

What about the TGI (OVCAR-5 ovarian) of the same molecule?
Its TGI is 31.2 µM.

What about the TGI (SF-295 CNS) of the same molecule?
The TGI was 30.4 µM.

What about the TGI (MDA-MB-231 breast) of the same molecule?
Its TGI is 36.4 µM.

And the TGI (NCI-H460 lung)?
Its TGI is over 100 µM.

What about the TGI (RPMI-8226 leukemia) of the same molecule?
Its TGI is 37.1 µM.

And the TGI (TK-10 renal)?
The TGI was 31.5 µM.

What about the TGI (HOP-62 NSCLC) of the same molecule?
Its TGI is 35.1 µM.

`O=C(NC1C(=O)NNC1c1ccccc1Cl)c1ccccc1` (configuration not stated) was tested. Which TGI (HOP-92 NSCLC) did it give?
The TGI was over 100 µM.

What about the TGI (OVCAR-5 ovarian) of the same molecule?
Its TGI is over 100 µM.

What about the TGI (SF-295 CNS) of the same molecule?
The TGI was over 100 µM.

What about the TGI (NCI-H460 lung) of the same molecule?
Its TGI is over 100 µM.

What about the TGI (RPMI-8226 leukemia) of the same molecule?
The TGI was over 100 µM.

And the TGI (TK-10 renal)?
The TGI was over 100 µM.

What about the TGI (HOP-62 NSCLC) of the same molecule?
Its TGI is over 100 µM.

What about the TGI (UACC-62 melanoma) of the same molecule?
The TGI was over 100 µM.

What does the source list for `CN1CCN(c2ccc(Nc3ncc4cc5n(c4n3)C3(CCCCC3)CNC5=O)nc2)CC1`?
GI50 (MDA-MB-435): 2.02 µM; TGI (MDA-MB-435): 24 µM; GI50 (HOP-92 NSCLC): 1.27 µM; TGI (HOP-92 NSCLC): 18.2 µM; GI50 (OVCAR-5 ovarian): 0.491 µM; TGI (OVCAR-5 ovarian): 12.2 µM; GI50 (SF-295 CNS): 3.09 µM; TGI (SF-295 CNS): 18.4 µM; GI50 (MDA-MB-231 breast): 1.34 µM; TGI (MDA-MB-231 breast): 10.5 µM; GI50 (NCI-H460 lung): 1.39 µM; TGI (NCI-H460 lung): 10.6 µM; GI50 (RPMI-8226 leukemia): 0.0624 µM; TGI (RPMI-8226 leukemia): 4.04 µM; GI50 (HOP-62 NSCLC): 1.06 µM; TGI (HOP-62 NSCLC): 12.8 µM; GI50 (UACC-62 melanoma): 2.94 µM; TGI (UACC-62 melanoma): 19.8 µM

For `ClCCCCOC1CCCCO1` (configuration not stated), which TGI (HOP-92 NSCLC) is on record?
The TGI was over 100 µM.

And the TGI (OVCAR-5 ovarian)?
Its TGI is over 100 µM.

And the TGI (SF-295 CNS)?
Its TGI is over 100 µM.

And the TGI (NCI-H460 lung)?
The TGI was over 100 µM.

And the TGI (TK-10 renal)?
Its TGI is over 100 µM.

What about the TGI (HOP-62 NSCLC) of the same molecule?
Its TGI is over 100 µM.

And the TGI (UACC-62 melanoma)?
Its TGI is over 100 µM.

Which TGI (HOP-92 NSCLC) does the source give for `Cn1cnc([N+](=O)[O-])c1Sc1nc2ccc([N+](=O)[O-])cc2[nH]1` here?
Its TGI is 39.8 µM.

And the TGI (OVCAR-5 ovarian)?
The TGI was over 100 µM.

And the TGI (SF-295 CNS)?
The TGI was over 100 µM.

And the TGI (NCI-H460 lung)?
The TGI was over 100 µM.

What about the TGI (RPMI-8226 leukemia) of the same molecule?
The TGI was 67.5 µM.

What about the TGI (TK-10 renal) of the same molecule?
Its TGI is 59.3 µM.

And the TGI (HOP-62 NSCLC)?
The TGI was over 100 µM.

And the TGI (UACC-62 melanoma)?
Its TGI is 28.2 µM.

Which results are given for `COc1cc(NC(C)CCCN2C(=O)c3ccccc3C2=O)c2ncccc2c1OC` (configuration not stated)?
GI50 (MDA-MB-435): 34.2 µM; TGI (MDA-MB-435): > 100 µM; GI50 (HOP-92 NSCLC): 18.2 µM; TGI (HOP-92 NSCLC): > 100 µM; GI50 (OVCAR-5 ovarian): 82.6 µM; TGI (OVCAR-5 ovarian): > 100 µM; GI50 (SF-295 CNS): 21.1 µM; TGI (SF-295 CNS): 86.5 µM; GI50 (MDA-MB-231 breast): 31.8 µM; TGI (MDA-MB-231 breast): > 100 µM; GI50 (NCI-H460 lung): 35.5 µM; TGI (NCI-H460 lung): > 100 µM; GI50 (TK-10 renal): 40.5 µM; TGI (TK-10 renal): > 100 µM; GI50 (HOP-62 NSCLC): 52.6 µM; TGI (HOP-62 NSCLC): > 100 µM; GI50 (UACC-62 melanoma): 35.9 µM; TGI (UACC-62 melanoma): > 100 µM

Which results are given for `Cc1ccc(NC(=O)C(=O)CC(=O)c2ccccc2)cc1C`?
TGI (HOP-92 NSCLC): > 100 µM; TGI (OVCAR-5 ovarian): > 100 µM; TGI (SF-295 CNS): > 100 µM; TGI (NCI-H460 lung): > 100 µM; TGI (RPMI-8226 leukemia): > 100 µM; TGI (TK-10 renal): > 100 µM; TGI (HOP-62 NSCLC): > 100 µM; TGI (UACC-62 melanoma): > 100 µM

For `Cn1cc(C2=C(c3c(S(C)=O)n(C)c4ccccc34)C(=O)NC2=O)c2ccccc21` (configuration not stated), which GI50 (MDA-MB-435) is on record?
The GI50 was 2.68 µM.

And the TGI (MDA-MB-435)?
The TGI was 9.14 µM.

What about the GI50 (OVCAR-5 ovarian) of the same molecule?
Its GI50 is over 25 µM.

And the TGI (OVCAR-5 ovarian)?
The TGI was over 25 µM.

What about the GI50 (SF-295 CNS) of the same molecule?
The GI50 was 5.93 µM.

What about the TGI (SF-295 CNS) of the same molecule?
The TGI was over 17.2 µM.

And the GI50 (MDA-MB-231 breast)?
Its GI50 is 12.9 µM.

What about the TGI (MDA-MB-231 breast) of the same molecule?
The TGI was over 25 µM.

What about the GI50 (NCI-H460 lung) of the same molecule?
Its GI50 is 5.83 µM.

And the TGI (NCI-H460 lung)?
Its TGI is over 25 µM.

And the GI50 (RPMI-8226 leukemia)?
The GI50 was 12.7 µM.

And the TGI (RPMI-8226 leukemia)?
Its TGI is over 25 µM.

What about the GI50 (TK-10 renal) of the same molecule?
Its GI50 is 6.26 µM.

What about the TGI (TK-10 renal) of the same molecule?
The TGI was over 25 µM.

And the GI50 (HOP-62 NSCLC)?
The GI50 was 8.34 µM.

And the TGI (HOP-62 NSCLC)?
The TGI was over 25 µM.

And the GI50 (UACC-62 melanoma)?
The GI50 was 14.2 µM.

And the TGI (UACC-62 melanoma)?
Its TGI is over 25 µM.

Which results are given for `CNCCNc1nc2ccccc2c2c(=O)c3cccc(C)c3sc12`?
GI50 (MDA-MB-435): 1.05 µM; TGI (MDA-MB-435): 2.22 µM; GI50 (HOP-92 NSCLC): 1.69 µM; TGI (HOP-92 NSCLC): 10.8 µM; GI50 (OVCAR-5 ovarian): 3.91 µM; TGI (OVCAR-5 ovarian): 10.6 µM; GI50 (SF-295 CNS): 5.54 µM; TGI (SF-295 CNS): 12.1 µM; GI50 (MDA-MB-231 breast): 1.02 µM; TGI (MDA-MB-231 breast): 3.61 µM; GI50 (NCI-H460 lung): 0.917 µM; TGI (NCI-H460 lung): 2.05 µM; GI50 (RPMI-8226 leukemia): 1.16 µM; TGI (RPMI-8226 leukemia): 2.96 µM; GI50 (HOP-62 NSCLC): 1.36 µM; TGI (HOP-62 NSCLC): 8.81 µM; GI50 (UACC-62 melanoma): 1.15 µM; TGI (UACC-62 melanoma): 3.39 µM
